Ends that are not written are not given here.
Experiments:
HaCaT cells = experiment: Cytotoxicity / metabolic activity, AlamarBlue direct contact assay; assay type: cell-based, human; details: assembly performed in the presence of Cu2+ (1:1), 24 h, serum-free DMEM-HG
Experimental: As the designed systems target wound healing, we assessed their cytocompatibility toward human keratinocyte cell line HaCaT.
The cytotoxicity evaluation of the peptides and their supramolecular assemblies was evaluated by direct contact assay with HaCaT cells using the AlamarBlue HS Cell Viability Reagent assay (Biorad). Briefly, HaCaT cells were cultured in DMEM-HG supplemented with 10% FBS (2.5 × 10^4 cell/well) in 96-well plates for 24 h. Peptide solutions (10 mM) were prepared 24 h before the assay and sterilized (UV, 30 min). These solutions were diluted in serum-free DMEM-HG just prior to the assay to obtain concentrations ranging from 1 to 0.05 mM and added to the cultured HaCaT cells. Cultures with the peptides were mantained for 24 h and then the medium was aspirated, and AlamarBlue HS Cell Viability solution (10% (v/v) in DMEM-HG) was added to each well. The plates were incubated for 3 h at 37 °C with 5% CO2. The medium from each well was transferred to a black 96-well plate, and the fluorescence was measured using a microplate reader (Synergy, Bio-Tek) with an excitation wavelength of 550 nm and an emission wavelength of 590 nm. Cells cultured on tissue culture polystyrene (TCPS) were used as a positive control and cells treated with 20% DMSO were used as a negative one.

proteinase K = biological target: T1, proteinase K (Parengyodontium album, UniProt P06873); experiment: Stability of peptide assemblies against proteinase K (HPLC); assay type: in vitro ADME; details: in the presence of Cu2+, peptide 2 mM
T1 construct: purchased AppliChem
T1 sequence (P06873 106-384): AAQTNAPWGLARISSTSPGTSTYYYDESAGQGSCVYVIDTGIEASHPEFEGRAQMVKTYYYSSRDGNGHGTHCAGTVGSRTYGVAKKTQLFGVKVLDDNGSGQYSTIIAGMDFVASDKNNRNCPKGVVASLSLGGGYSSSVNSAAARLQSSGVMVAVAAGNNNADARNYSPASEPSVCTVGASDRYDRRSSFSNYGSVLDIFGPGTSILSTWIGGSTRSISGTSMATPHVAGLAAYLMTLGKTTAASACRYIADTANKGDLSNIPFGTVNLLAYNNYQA
Experimental: The chemical structure and molecular packing of the peptides play a crucial role in their stability by (un)-shielding the amide bonds from enzymatic degradation. − We investigated the stability of the supramolecular assemblies generated by Pep1–Pep3 in the presence of proteinase K. This enzyme was selected because of its activity toward a broad range of peptides/proteins that spans different temperatures (25–65 °C) and pH values (7–12).
A stock solution of proteinase K (50 μg/mL, AppliChem) was prepared in PBS. Peptide assemblies were prepared as described in Section 1 day prior the assay. These samples were incubated with proteinase K (final concentration: 10 μg/mL for proteinase K and 2 mM for Cu-free or Cu-complexed Pep1-Pep3). At each designated time point, an aliquot of 150 μL was collected, and the enzymatic activity was stopped by adding 300 μL of 1:1 H2O/ACN with 0.1% TFA. The aliquot was quantitatively assessed using HPLC under the conditions described in Section . Each sample was run in duplicate to ensure reliable results.

| Sequence | concentration above which cytotoxicity was observed (HaCaT cells) | peptide not degraded after 6 h of incubation with proteinase K (proteinase K; proteinase K 10 μg/mL in PBS, 6 h, HPLC read-out, run in duplicate) | initial concentration still present after 24 h with proteinase K (proteinase K; proteinase K 10 μg/mL in PBS, 24 h, HPLC read-out, run in duplicate) [%] | relative stability to proteinase K (in words) (proteinase K; proteinase K 10 μg/mL, HPLC) |
| --- | --- | --- | --- | --- |
| FFFFDGHK [Pep2] | above 250 μM | – | – | – |
| FFFFDKHG [Pep3] | above 250 μM | more than 90% | 60 | most stable |
